What was measured:
A498 = test: Growth inhibition of human A498 cells assessed as cell growth at 100 uM incubated for 48 hrs by sulforhodamine B assay relative to control; assay type: functional; conditions: A498, 48 h, read-out: Activity
SK-MEL-2 [1] = test: Growth inhibition of human SK-MEL-2 cells assessed as cell growth at 100 uM incubated for 48 hrs by sulforhodamine B assay relative to control; assay type: functional; conditions: SK-MEL-2, 48 h, read-out: Activity
NCI-H522 = test: Growth inhibition of human NCI-H522 cells assessed as cell growth at 10 uM incubated for 48 hrs by sulforhodamine B assay relative to control; assay type: functional; conditions: NCI-H522, 48 h, read-out: Activity
HL-60(TB) [2] = test: Growth inhibition of human HL-60(TB) cells assessed as cell growth at 0.3 uM incubated for 48 hrs by sulforhodamine B assay relative to control; assay type: functional; conditions: HL-60, 48 h, read-out: Activity
SF-268 = test: Growth inhibition of human SF268 cells assessed as cell growth at 0.003 uM incubated for 48 hrs by sulforhodamine B assay relative to control; assay type: functional; conditions: SF-268, 48 h, read-out: Activity
MDA-MB-468 = test: Growth inhibition of human MDA-MB-468 cells assessed as cell growth at 0.03 uM incubated for 48 hrs by sulforhodamine B assay relative to control; assay type: functional; conditions: MDA-MB-468, 48 h, read-out: Activity
UACC-257 = test: Growth inhibition of human UACC257 cells assessed as cell growth at 3 uM incubated for 48 hrs by sulforhodamine B assay relative to control; assay type: functional; conditions: UACC-257, 48 h, read-out: Activity
OVCAR-8 = test: Growth inhibition of human OVCAR8 cells assessed as cell growth at 0.03 uM incubated for 48 hrs by sulforhodamine B assay relative to control; assay type: functional; conditions: OVCAR-8, 48 h, read-out: Activity
SNB-75 = test: Growth inhibition of human SNB75 cells assessed as cell growth at 30 uM incubated for 48 hrs by sulforhodamine B assay relative to control; assay type: functional; conditions: SNB-75, 48 h, read-out: Activity
SW-620 [3] = test: Growth inhibition of human SW620 cells assessed as cell growth at 0.3 uM incubated for 48 hrs by sulforhodamine B assay relative to control; assay type: functional; conditions: SW-620, 48 h, read-out: Activity
HOP-92 = test: Growth inhibition of human HOP92 cells assessed as cell growth at 30 uM incubated for 48 hrs by sulforhodamine B assay relative to control; assay type: functional; conditions: HOP-92, 48 h, read-out: Activity
KM12 = test: Growth inhibition of human KM12 cells assessed as cell growth at 0.5 uM incubated for 48 hrs by sulforhodamine B assay relative to control; assay type: functional; conditions: KM12, 48 h, read-out: Activity
HCT-15 = test: Growth inhibition of human HCT15 cells assessed as cell growth at 0.5 uM incubated for 48 hrs by sulforhodamine B assay relative to control; assay type: functional; conditions: HCT-15, 48 h, read-out: Activity
Hs-578T = test: Growth inhibition of human Hs 578T cells assessed as cell growth at 0.5 uM incubated for 48 hrs by sulforhodamine B assay relative to control; assay type: functional; conditions: read-out: Activity
T47D [4] = test: Growth inhibition of human T47D cells assessed as cell growth at 0.005 uM incubated for 48 hrs by sulforhodamine B assay relative to control; assay type: functional; conditions: read-out: Activity
MDA-MB-231 [5] = test: Growth inhibition of human MDA-MB-231 cells assessed as cell growth at 0.005 uM incubated for 48 hrs by sulforhodamine B assay relative to control; assay type: functional; conditions: MDA-MB-231, 48 h, read-out: Activity
HCC 2998 = test: Growth inhibition of human HCC2998 cells assessed as cell growth at 0.005 uM incubated for 48 hrs by sulforhodamine B assay relative to control; assay type: functional; conditions: HCC 2998, 48 h, read-out: Activity
MDA-MB-231 [6] = test: Growth inhibition of human MDA-MB-231 cells assessed as cell growth at 0.5 uM incubated for 48 hrs by sulforhodamine B assay relative to control; assay type: functional; conditions: MDA-MB-231, 48 h, read-out: Activity
SK-MEL-2 [7] = test: Growth inhibition of human SK-MEL-2 cells assessed as cell growth at 0.5 uM incubated for 48 hrs by sulforhodamine B assay relative to control; assay type: functional; conditions: SK-MEL-2, 48 h, read-out: Activity
SR = test: Growth inhibition of human SR cells assessed as cell growth at 0.05 uM incubated for 48 hrs by sulforhodamine B assay relative to control; assay type: functional; conditions: read-out: Activity
NCI-H322M = test: Growth inhibition of human NCI-H322M cells assessed as cell growth at 0.5 uM incubated for 48 hrs by sulforhodamine B assay relative to control; assay type: functional; conditions: read-out: Activity
HOP-62 = test: Growth inhibition of human HOP62 cells assessed as cell growth at 5 uM incubated for 48 hrs by sulforhodamine B assay relative to control; assay type: functional; conditions: HOP-62, 48 h, read-out: Activity
SF-295 = test: Growth inhibition of human SF295 cells assessed as cell growth at 0.005 uM incubated for 48 hrs by sulforhodamine B assay relative to control; assay type: functional; conditions: SF-295, 48 h, read-out: Activity
HL-60(TB) [8] = test: Growth inhibition of human HL-60(TB) cells assessed as cell growth at 50 uM incubated for 48 hrs by sulforhodamine B assay relative to control; assay type: functional; conditions: HL-60, 48 h, read-out: Activity
SW-620 [9] = test: Growth inhibition of human SW620 cells assessed as cell growth at 0.5 uM incubated for 48 hrs by sulforhodamine B assay relative to control; assay type: functional; conditions: SW-620, 48 h, read-out: Activity
786-0 = test: Growth inhibition of human 786-0 cells assessed as cell growth at 5 uM incubated for 48 hrs by sulforhodamine B assay relative to control; assay type: functional; conditions: 786-0, 48 h, read-out: Activity
UACC-62 = test: Growth inhibition of human UACC62 cells assessed as cell growth at 5 uM incubated for 48 hrs by sulforhodamine B assay relative to control; assay type: functional; conditions: UACC-62, 48 h, read-out: Activity
PC-3 = test: Growth inhibition of human PC3 cells assessed as cell growth at 0.05 uM incubated for 48 hrs by sulforhodamine B assay relative to control; assay type: functional; conditions: PC-3, 48 h, read-out: Activity
T47D [10] = test: Growth inhibition of human T47D cells assessed as cell growth at 0.05 uM incubated for 48 hrs by sulforhodamine B assay relative to control; assay type: functional; conditions: read-out: Activity
RXF 393 = test: Growth inhibition of human RXF393 cells assessed as cell growth at 0.05 uM incubated for 48 hrs by sulforhodamine B assay relative to control; assay type: functional; conditions: RXF 393, 48 h, read-out: Activity
LOX IMVI = test: Growth inhibition of human LOXIMVI cells assessed as cell growth at 5 uM incubated for 48 hrs by sulforhodamine B assay relative to control; assay type: functional; conditions: read-out: Activity
[11] = target: Receptor-type tyrosine-protein kinase FLT3 (Homo sapiens) (UniProt P36888); test: Inhibition of human FLT3 at 10 uM using EAIYAAPFAKKK as substrate in presence of [33P]ATP by Hotspot assay relative to control
Receptor-type tyrosine-protein kinase FLT3 (Homo sapiens), sequence (P36888 whole entry): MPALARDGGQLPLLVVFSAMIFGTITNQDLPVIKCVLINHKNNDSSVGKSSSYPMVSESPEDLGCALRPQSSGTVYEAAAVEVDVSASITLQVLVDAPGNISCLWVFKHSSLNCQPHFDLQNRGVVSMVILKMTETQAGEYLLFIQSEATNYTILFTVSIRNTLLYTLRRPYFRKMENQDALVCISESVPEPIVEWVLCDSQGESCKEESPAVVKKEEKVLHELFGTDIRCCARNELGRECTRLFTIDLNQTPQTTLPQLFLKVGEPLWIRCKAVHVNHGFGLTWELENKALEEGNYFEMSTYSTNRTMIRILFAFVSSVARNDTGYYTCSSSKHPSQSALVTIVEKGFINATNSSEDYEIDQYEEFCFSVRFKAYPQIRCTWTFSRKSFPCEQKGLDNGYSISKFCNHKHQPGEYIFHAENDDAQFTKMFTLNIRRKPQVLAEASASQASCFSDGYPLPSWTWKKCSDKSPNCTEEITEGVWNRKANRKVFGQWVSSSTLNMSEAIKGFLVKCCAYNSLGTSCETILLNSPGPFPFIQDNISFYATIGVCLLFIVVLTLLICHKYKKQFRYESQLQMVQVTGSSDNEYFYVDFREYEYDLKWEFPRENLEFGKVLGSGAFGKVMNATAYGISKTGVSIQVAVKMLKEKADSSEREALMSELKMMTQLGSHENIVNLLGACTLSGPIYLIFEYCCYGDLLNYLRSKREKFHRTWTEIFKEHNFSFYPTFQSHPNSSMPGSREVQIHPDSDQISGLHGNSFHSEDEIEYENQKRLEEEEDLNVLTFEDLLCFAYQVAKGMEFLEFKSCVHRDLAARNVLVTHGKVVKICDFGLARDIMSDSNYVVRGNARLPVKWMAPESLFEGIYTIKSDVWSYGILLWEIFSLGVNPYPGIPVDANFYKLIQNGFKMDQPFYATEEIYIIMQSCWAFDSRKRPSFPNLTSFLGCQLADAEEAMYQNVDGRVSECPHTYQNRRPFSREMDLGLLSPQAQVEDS

[12] = target: Tyrosine-protein kinase ABL1 (Homo sapiens) (UniProt P00519); test: Inhibition of human ABL1 at 10 uM using EAIYAAPFAKKK as substrate in presence of [33P]ATP by Hotspot assay relative to control
Tyrosine-protein kinase ABL1 (Homo sapiens), sequence (P00519 whole entry): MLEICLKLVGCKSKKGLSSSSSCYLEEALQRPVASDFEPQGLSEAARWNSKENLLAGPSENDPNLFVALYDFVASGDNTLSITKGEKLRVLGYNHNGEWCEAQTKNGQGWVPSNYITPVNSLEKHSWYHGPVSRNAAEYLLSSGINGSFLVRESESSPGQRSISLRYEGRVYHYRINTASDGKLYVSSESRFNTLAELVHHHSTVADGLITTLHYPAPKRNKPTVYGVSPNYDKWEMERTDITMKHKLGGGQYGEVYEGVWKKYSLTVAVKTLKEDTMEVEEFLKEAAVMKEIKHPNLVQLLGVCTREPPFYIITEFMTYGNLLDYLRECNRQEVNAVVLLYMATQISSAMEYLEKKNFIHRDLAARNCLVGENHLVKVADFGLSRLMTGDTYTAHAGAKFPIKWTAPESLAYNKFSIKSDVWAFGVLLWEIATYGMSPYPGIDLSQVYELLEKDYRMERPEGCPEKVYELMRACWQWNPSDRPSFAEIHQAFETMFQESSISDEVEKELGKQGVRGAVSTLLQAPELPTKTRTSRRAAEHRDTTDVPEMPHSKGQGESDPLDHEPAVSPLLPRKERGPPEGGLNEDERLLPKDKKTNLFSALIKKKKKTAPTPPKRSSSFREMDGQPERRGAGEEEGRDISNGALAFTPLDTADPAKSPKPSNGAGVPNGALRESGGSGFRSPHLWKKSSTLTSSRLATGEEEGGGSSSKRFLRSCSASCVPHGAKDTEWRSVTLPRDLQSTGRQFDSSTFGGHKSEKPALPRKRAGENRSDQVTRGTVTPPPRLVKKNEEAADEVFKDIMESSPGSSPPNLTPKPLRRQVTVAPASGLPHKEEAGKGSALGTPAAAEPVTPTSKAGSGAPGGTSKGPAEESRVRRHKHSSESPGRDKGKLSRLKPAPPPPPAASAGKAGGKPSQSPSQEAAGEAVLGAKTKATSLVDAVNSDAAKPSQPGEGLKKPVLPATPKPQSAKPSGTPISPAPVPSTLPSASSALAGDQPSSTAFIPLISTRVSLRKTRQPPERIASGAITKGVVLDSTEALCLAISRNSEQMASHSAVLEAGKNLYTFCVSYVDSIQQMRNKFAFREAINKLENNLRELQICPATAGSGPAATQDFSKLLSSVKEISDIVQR

SMILES: COc1cc2cc(Oc3ccc(NC(=O)Nc4cc(C(F)(F)F)cc(C(F)(F)F)c4)cc3)c(C)nc2cc1OC
- growth at 100 µM (A498): -93%
- growth at 100 µM (SK-MEL-2 [1]): -69%
- growth at 10 µM (NCI-H522): -71%

SMILES: Cc1nc2cc(O)c(O)cc2cc1Oc1ccc(NC(=O)Nc2ccc(Cl)c(Cl)c2)cc1
- growth at 0.3 µM (HL-60(TB) [2]): 106%
- growth at 0.003 µM (SF-268): 100%
- growth at 0.03 µM (MDA-MB-468): 105%
- growth at 3 µM (UACC-257): 87%
- growth at 0.03 µM (OVCAR-8): 93%
- growth at 30 µM (SNB-75): -4%
- growth at 0.3 µM (SW-620 [3]): 100%
- growth at 30 µM (HOP-92): -20%

SMILES: COc1cc2cc(Oc3ccc(NC(=O)Nc4ccc(Cl)c(Cl)c4)cc3)c(C)nc2cc1OC
- growth at 100 µM (A498): -56%
- growth at 100 µM (SK-MEL-2 [1]): -100%
- growth at 10 µM (NCI-H522): -5%

SMILES: COc1cc2cc(Oc3ccc(NC(=O)Nc4cccc(C(F)(F)F)c4)cc3)c(C)nc2cc1OC
- growth at 0.5 µM (KM12): 88%
- growth at 0.5 µM (HCT-15): 92%
- growth at 0.5 µM (Hs-578T): 99%
- growth at 0.005 µM (T47D [4]): 90%
- growth at 0.005 µM (MDA-MB-231 [5]): 93%
- growth at 0.005 µM (HCC 2998): 99%
- growth at 0.5 µM (MDA-MB-231 [6]): 81%
- growth at 0.5 µM (SK-MEL-2 [7]): 108%
- growth at 0.05 µM (SR): 93%
- growth at 0.5 µM (NCI-H322M): 107%
- growth at 5 µM (HOP-62): 25%
- growth at 0.005 µM (SF-295): 90%
- growth at 50 µM (HL-60(TB) [8]): -43%
- growth at 0.5 µM (SW-620 [9]): 108%
- growth at 5 µM (786-0): 12%
- growth at 5 µM (UACC-62): 22%
- growth at 0.05 µM (PC-3): 99%
- growth at 0.05 µM (T47D [10]): 101%
- growth at 0.05 µM (RXF 393): 105%
- growth at 5 µM (LOX IMVI): 14%

SMILES: COc1cc2cc(Oc3ccc(NC(=O)Nc4ccc(Cl)c(C(F)(F)F)c4)cc3)c(C)nc2cc1OC
- inhibition [11]: 33.5%
- growth at 0.3 µM (HL-60(TB) [2]): 111%
- growth at 0.003 µM (SF-268): 95%
- growth at 3 µM (UACC-257): -13%
- growth at 0.03 µM (OVCAR-8): 94%
- growth at 30 µM (SNB-75): -44%
- inhibition [12]: -6.78%
- growth at 0.3 µM (SW-620 [3]): 99%
- growth at 30 µM (HOP-92): -79%
